# Measured values from patent publication US20050075393A1, “Carboxylic acid compound cyclopropane ring” (priority 2000, published 2005).
# Test system: hippocampal neurotransmission (PS amplitude, dentate granule cells, perforant path stimulation)
# Test: Population spike (PS) recording in dentate gyrus of anesthetized mice (LTP-like potentiation of synaptic transmission)
# Assay type: in vivo
# Settings: mouse
# From the text: For population spike (PS) recording, the head of a mouse was fixed with ear bars under urethane anesthesia (an initial dose of 1.2 g/kg, i.p. followed by supplemental injections of 0.2-0.6 g/kg as needed), and a glass recording electrode was placed in the cell body layer of dentate granule cells (coordinates=2.0-2.5 mm posterior to bregma, 1.0-1.5 mm lateral to the midline, 1.5-2.0 mm ventral to the brain surface). Initial responses were obtained using cathodal stimulation (7.0-9.0 V, 0.1 Hz, 0.1 ms in duration) of the perforant path. After both stimulating and recording electrodes were properly positioned and population spike was obtained, the baseline was allowed to stabilize for 30 min prior to baseline recording. Body temperature was maintained at 37° C. Compound A was dissolved in 50% polyethylene glycol, diluted with water, and injected intraperitoneally (i.p.) at concentrations of 0.1 mg/kg, 1 mg/kg and 10 mg/kg, respectively. After the intraperitoneal administration of Compound A, the PS amplitude was measured every 5 minutes, and the proportion in percentage of the obtained value to the PS amplitude at the time of the start of i.p. administration of Compound A (% of basal PS amplitude) was calculated.
compound,measurement,setting,value
"CCCCCC1CC1CC1CC1CCCCCCCC(=O)O (stereo not drawn) [Compound A, 8-(2-((2-pentylcyclopropan-1-yl)methyl)cyclopropyl)octanoic acid]",time after injection at which potentiation of PS amplitude is still evident,1 mg/kg i.p.,≥ 120 min
same,"PS amplitude, percent of basal PS amplitude","1 mg/kg i.p., urethane anesthesia",approximately 200%
same,potentiation of PS amplitude,"10 mg/kg i.p., compared with 1 mg/kg",much lesser potentiation
